{"source": "patent US6846937B2", "about": "“Method for the selective removal of acyl-functionality attached to the 2'-hydroxy-group of paclitaxel-related derivatives” (The University of Toledo, priority 2001, dated 2005)", "key": {"[1]": {"experiment": "Stability of PAC and DAP CAC analogs in methanol at ambient temperature (HPLC decay curve)", "format": "physicochemical", "method": "During development of an HPLC method to purify 2′,7-bis-monochloroacetyl-10-deacetylpaclitaxel (2′,7-bis-CAC-DAP), the inventors discovered that the compound was unstable in methanol solution at a concentration of 1 mg/ml. […] Thus, we decided to further investigate the apparent differences in the stability of several PAC and DAP CAC esters relative to concentration and acidity.\nCompound abbreviations are provided in FIG. 2-Table 1 according to the nomenclature and numbering specified in FIG. 1. RT=Retention times on an analytical HPLC (Waters) equipped with a reversed-phase column (Supleco Discovery C18) using a gradient elution (60% acetonitrile from 0-2 min., linearly ramped from 60% to 75% from 2-12 min., and held steady at 75% for the duration of the assay) at a flow rate of 1.2 ml/min. monitored by UV detection (225 nm). NMR (CDCl3) values for the C2′ proton shifts are in ppm relative to TMS. T1/2=Apparent half-lives. All compounds were independently prepared and characterized by HPLC, NMR and elemental analyses. ^†Previously reported by Rao et al. ^††Previously reported by Rimoldi et al.^21 *Less than 5% breakdown after 72 hr.\nA 1 mg/ml solution of 2′,7-bis-CAC-DAP in methanol was allowed to stand at ambient temperature. 20 μl samples were withdrawn at T=0, 2, 24 and 48 hrs. Longer incubations were deployed for compounds showing little breakdown. Aliquots were assayed directly by HPLC after establishing that responses obtained for serial dilutions of a freshly prepared 10 mg/ml stock solution of 2′,7-bis-CAC-DAP were linear throughout the concentration range anticipated for the samples. A decay curve was generated by following the decrease in compound peak area versus time. An apparent half-life (T1/2) was then calculated from a semi-log plot using Microsoft Excel. The decay curve for 2′,7-bis-CAC-DAP appears to follow pseudo first-order kinetics typical for solvolysis reactions. The T1/2 value for conversion to 7-CAC-DAP is 5.5 hrs. The product growth curve matches very closely with the compound decay curve. Similar results were obtained for all of the other 2′-chloroacetylated derivatives listed in FIG. 2-Table 1 except for 2′ CAC-DAP whose T1/2 appears to be about three-times longer (18 hrs.). Nevertheless, this derivative is still much more labile than the chloroacetyl esters placed at either the 7- or 10-positions (T1/2 values all >>72 hrs.).\nFor the more concentrated experiments, a 10 mg/ml solution of 2′,7-bis-CAC-DAP was allowed to stand at ambient temperature. […] For the weakly acidic studies, less than 4% breakdown of 2′,7-bis-CAC-DAP was observed over 48 hrs. and the calculated T1/2 was determined to be >1,000 hrs. […]"}, "[2]": {"experiment": "Alcoholysis of 2′-acyl group followed by analytical HPLC (Examples 1-4)", "format": "physicochemical", "from_the_text": "As part of research to better understand the interaction of PAC-related compounds with various components within cancer cells,^11,12 the inventors deployed CAC protection of both PAC and 10-deacetylpaclitaxel (DAP) (FIG. 4). During purification of various mixtures of the three predominate CAC derivatives obtained for DAP, namely the 2′-mono-, the 2′,7-bis- and the 2′,7,10-tri-CAC protected materials, the 2′-adducts appeared to be unstable when allowed to stand for prolonged periods in methanol. Testing purified materials on a 1 mg scale confirmed this observation. Moving to a larger sample, a 40 mL solution of 2′,7-bis-CAC-DAP was then examined at a concentration of 1 mg/mL. Methanolysis of the 2′-adduct was complete after 48 hours at ambient temperature. The exclusive product was isolated by evaporation of solvent, washed with cold water, and its structure characterized as 7-mono-CAC-DAP according to NMR (FIG. 5-Table 2) and elemental analysis. […] In this case the structural integrity for the latter was additionally confirmed by its independent synthesis analogous to a literature procedure^4 wherein after treatment of PAC with chloroacetic anhydride in pyridine, the reaction mixture was subjected to 10 mM ammonia at room temperature for 1 hour prior to preparative HPLC separation of the resulting mixture of esters.\n7-Monochloroacetyl-10-deactylpaclitaxel (7-CAC-DAP) (2). 2′,7-bis-CAC-DAP (1) (30 mg, 0.031 mmol) was dissolved in 40 mL of methanol (HPLC grade) and left at ambient temperature. 20 μL samples were withdrawn at several hour intervals and analyzed directly by HPLC. The conversion was complete in 48 hrs. Solvent was evaporated to dryness leaving a glossy residue which crystallized upon addition of water. Yield: 25 mg (0.028 mmol) having 97% purity by HPLC; mp 163-166° C.; Analytical HPLC RT=24 min. (Discovery column); Elemental Analysis calculated for formula C47H50ClNO14: C, 63.55%; H, 5.67%; N, 1.58%. Found: C, 63.08%; H, 5.97%; N, 1.63%.\n7-Monochloroacetylpaclitaxel (7-CAC-PAC) (4). 1 mg of 2′,7-bis-CAC-PAC (3) was dissolved in 1 mL of methanol and the solution left at ambient temperature. 20 μL samples were withdrawn at several hour intervals and directly analyzed by HPLC. The conversion was complete in 48 hours. […] (Discovery column); Elemental Analysis calculated for formula C49H52Cl NO15: C, 63.26%; H, 5.63%; N, 1.51%. […]\n7-Methoxyacetylpaclitaxel (7-MAC-PAC) (5). […] Samples (20 μl) were withdrawn at several hour intervals and analyzed directly by HPLC. […] (Suplecosil column); Elemental analysis calculated for C50 H55 NO16.H2O: C, 63.36%; H, 6.09%; N, 1.48%. […]"}}, "data": [{"smiles": "CC(=O)O[C@@]12CO[C@@H]1C[C@H](OC(=O)CCl)[C@@]1(C)C(=O)[C@H](O)C3=C(C)[C@@H](OC(=O)[C@H](OC(=O)CCl)[C@@H](NC(=O)c4ccccc4)c4ccccc4)C[C@@](O)([C@@H](OC(=O)c4ccccc4)[C@H]21)C3(C)C", "note": "[2′,7-bis-CAC-DAP, 2′,7-bis-Monochloroacetyl-10-deacetylpaclitaxel]", "values": [{"measurement": "Breakdown", "setting": "[1]; 1 mg/ml in methanol with 0.2% acetic acid, over 48 hrs.", "value": "less than 4%"}, {"measurement": "Solvolysis in more concentrated methanolic solution", "setting": "[1]; 20 mg/ml, for preparative HPLC", "value": "did not appear to undergo solvolysis"}, {"measurement": "Stability in methanol solution", "setting": "[1]; concentration of 1 mg/ml", "value": "unstable"}, {"measurement": "Conversion (loss of 2′-acyl group)", "setting": "[2]; 80% ethanol/20% water, 56° C., 24 hours", "value": "Approximately 50%"}, {"measurement": "Conversion (loss of 2′-acyl group)", "setting": "[2]; 80% ethanol/20% water, ambient temp., 22 hours", "value": "Approximately 20%"}, {"measurement": "Time to complete methanolysis of the 2′-adduct", "setting": "[2]; about 1 mg/mL in methanol, ambient temperature", "value": 48, "unit": "h"}]}, {"smiles": "COCC(=O)O[C@H]1C[C@H]2OC[C@@]2(OC(C)=O)[C@H]2[C@H](OC(=O)c3ccccc3)[C@]3(O)C[C@H](OC(=O)[C@H](OC(=O)COC)[C@@H](NC(=O)c4ccccc4)c4ccccc4)C(C)=C([C@@H](OC(C)=O)C(=O)[C@]12C)C3(C)C", "note": "[2′,7-bis-MAC-PAC]", "values": [{"measurement": "Conversion (loss of 2′-acyl group)", "setting": "[2]; 30 mg in 60 ml methanol, 47° C., within 7 hours", "value": "~90", "unit": "%"}]}, {"smiles": "CC(=O)OC12COC1CC(OC(=O)CCl)C1(C)C(=O)C(O)C3=C(C)C(OC(=O)C(O)C(NC(=O)c4ccccc4)c4ccccc4)CC(O)(C(OC(=O)c4ccccc4)C21)C3(C)C", "note": "(centres unmarked) [Compound 7-CAC-DAP, 7-Monochloroacetyl-10-deactylpaclitaxel]", "values": [{"measurement": "Breakdown to DAP", "setting": "[1]; methanol, studied for up to 120 hrs.", "value": "no significant breakdown"}]}]}
